Measured values published in patent publication US20240150362A1, “Substituted Pyrrolotriazines” (Molecure S.A., priority 2022, published 2024).
Where a name gives a salt, the structure may show the parent alone.

target: T1, full-length USP7 (Homo sapiens, UniProt Q93009); assay: Enzymatic assay to determine IC50 of USP7 inhibitors (Ubiquitin-Rhodamine 110 cleavage); assay type: biochemical; conditions: full-length USP7 0.5-1.0 nM, 0.5 μM Ubiquitin-Rhodamine 110, 30-60 min at 25° C.
T1 construct: A 45 μl reaction volume containing full-length USP7 (0.5-1.0 nM)
Protocol: Enzymatic Assay to Determine IC50 of USP7 Inhibitors
The IC50 is the concentration of an inhibitor where the measured enzyme activity is reduced by half. In the case of USP7 deubiquitinase, the IC50 of an USP7 inhibitor is the molar concentration of the compound that inhibits 50% of the activity observed in a USP7-mediated-ubiquitin-rhodamine cleavage assay. For the inhibitors disclosed herein, their potency was measured using the following method.
A 45 μl reaction volume containing full-length USP7 (0.5-1.0 nM) in 50 mM HEPES pH 7.5, 150 mM NaCl, 2 mM DTT, 1 mg/ml BSA and 0.05% Tween20 was assembled in wells of 96 well half area black flat bottom plates. Test compounds were first dissolved to 30 mM stocks in DMSO and subsequently introduced to enzyme 15 min after USP7 incubation with DTT at room temperature. The enzymatic reaction was started by adding 0.5 μM Ubiquitin-Rhodamine 110 (final concentration) and allowed to proceed for 30-60 min at 25° C., 250 RPM shaking before Rhodamine fluorescence (485 nm excitation/535 nm emission) was measured using Tecan Spark M10 plate reader. The IC50 values were determined by data fitting to variable slope model four-parameter dose-response curve using GraphPad 7.05.

T1 sequence (Q93009 whole entry): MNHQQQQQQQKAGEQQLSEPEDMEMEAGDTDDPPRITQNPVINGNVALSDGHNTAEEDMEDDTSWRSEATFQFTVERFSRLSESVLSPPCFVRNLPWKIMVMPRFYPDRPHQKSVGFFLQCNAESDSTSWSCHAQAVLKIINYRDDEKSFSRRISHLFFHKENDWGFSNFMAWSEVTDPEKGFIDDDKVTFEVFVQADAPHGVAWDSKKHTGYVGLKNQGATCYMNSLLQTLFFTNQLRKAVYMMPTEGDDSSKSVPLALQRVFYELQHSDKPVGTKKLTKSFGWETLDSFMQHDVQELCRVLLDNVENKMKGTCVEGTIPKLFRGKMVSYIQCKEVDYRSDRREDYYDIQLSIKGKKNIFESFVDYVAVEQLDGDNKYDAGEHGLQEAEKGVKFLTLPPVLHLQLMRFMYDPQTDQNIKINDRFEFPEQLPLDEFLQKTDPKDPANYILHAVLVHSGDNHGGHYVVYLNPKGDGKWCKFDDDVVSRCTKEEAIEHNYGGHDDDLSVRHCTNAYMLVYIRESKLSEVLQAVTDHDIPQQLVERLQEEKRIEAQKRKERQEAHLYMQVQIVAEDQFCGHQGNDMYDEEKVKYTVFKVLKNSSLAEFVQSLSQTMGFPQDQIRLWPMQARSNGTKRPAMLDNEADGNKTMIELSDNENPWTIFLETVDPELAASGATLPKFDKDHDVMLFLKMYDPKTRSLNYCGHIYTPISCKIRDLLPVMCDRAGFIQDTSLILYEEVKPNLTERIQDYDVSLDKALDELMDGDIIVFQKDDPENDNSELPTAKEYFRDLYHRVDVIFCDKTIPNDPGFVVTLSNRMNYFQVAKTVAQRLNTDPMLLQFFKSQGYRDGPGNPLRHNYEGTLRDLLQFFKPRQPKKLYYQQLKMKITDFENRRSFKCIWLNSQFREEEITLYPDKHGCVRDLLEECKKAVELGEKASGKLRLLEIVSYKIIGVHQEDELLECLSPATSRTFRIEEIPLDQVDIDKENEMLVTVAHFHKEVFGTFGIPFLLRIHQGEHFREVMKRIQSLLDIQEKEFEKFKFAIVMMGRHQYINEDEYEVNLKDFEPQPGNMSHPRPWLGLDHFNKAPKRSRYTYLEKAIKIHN

Compound	IC50
Cc1cc(Cl)cc(-c2ncnn3cc(Cn4c(=O)ccn(CCF)c4=O)cc23)c1CC1CNC[C@H](C)O1 (stereo partly drawn) [Example 101, 3-((4-(5-chloro-3-methyl-2-(((6S)-6-methylmorpholin-2-yl)methyl)phenyl)pyrrolo[2,1-f][1,2,4]triazin-6-yl)methyl)-1-(2-fluoroethyl)pyrimidine-2,4(1H,3H)-dione hydrochloride]	< 500 nM
Cc1cc(Cl)cc(-c2ncnn3cc(Cn4c(=O)cc[nH]c4=O)cc23)c1C[C@@H]1CNCCO1 (single isomer, unassigned) [Example 124, hydrochloride]	< 500 nM
Cc1cc(Cl)cc(-c2ncnn3cc(CN4C(=O)CCN(C)C4=O)cc23)c1CC1CNC[C@H](C)O1 (stereo partly drawn) [Example 109, 3-((4-(5-chloro-3-methyl-2-(((6S)-6-methylmorpholin-2-yl)methyl)phenyl)pyrrolo[2,1-f][1,2,4]triazin-6-yl)methyl)-1-methyldihydropyrimidine-2,4(1H,3H)-dione hydrochloride]	< 500 nM
Cc1cc(Cl)cc(-c2ncnn3cc(Cn4c(=O)ccn(C5CC5)c4=O)cc23)c1CC1CNC[C@H](C)O1 (single isomer, unassigned) [Example 106, hydrochloride]	< 500 nM
Cc1cc(Cl)cc(-c2ncnn3cc(Cn4c(=O)ccn(C)c4=O)cc23)c1CC1CNCCO1 (racemic) [Example 60, 3-((4-(5-chloro-3-methyl-2-(morpholin-2-ylmethyl)phenyl)pyrrolo[2,1-f][1,2,4]triazin-6-yl)methyl)-1-methylpyrimidine-2,4(1H,3H)-dione hydrochloride]	< 500 nM
Cc1cc(Cl)cc(-c2ncnn3cc(Cn4c(=O)ccn(CC(F)(F)F)c4=O)cc23)c1C[C@@H]1CNCCO1 (single isomer, unassigned) [Example 83, hydrochloride]	< 500 nM
Cc1cc(Cl)cc(-c2ncnn3cc(CN4C(=O)CN(C)CC4=O)cc23)c1CC1CNC[C@H](C)O1 (single isomer, unassigned) [Example 117, hydrochloride]	< 500 nM
Cn1ccc(=O)n(Cc2cc3c(-c4cc(Cl)cc5ccn(C[C@@H]6CNCCO6)c45)ncnn3c2)c1=O [Example 39, (S)-3-((4-(5-chloro-1-(morpholin-2-ylmethyl)-1H-indol-7-yl)pyrrolo[2,1-f][1,2,4]triazin-6-yl)methyl)-1-methylpyrimidine-2,4(1H,3H)-dione hydrochloride]	< 500 nM
Cc1cc(Cl)cc(-c2ncnn3cc(Cn4c(=O)c(F)cn(C)c4=O)cc23)c1CC1CNC[C@H](C)O1 (single isomer, unassigned) [Example 108, hydrochloride]	< 500 nM

The remaining lines, values ahead:

IC50	Compound
< 500 nM	Cc1cc(Cl)cc(-c2ncnn3cc(CN4C(=O)C5C(C4=O)C5(C)C)cc23)c1CC1CN[C@H](C)CO1 (single isomer, unassigned) [Example 41, hydrochloride]
< 500 nM	Cc1cc(Cl)cc(-c2ncnn3cc(CN4C(=O)C5C(C4=O)C5(C)C)cc23)c1CC1CNCC(C)(C)O1 (racemic) [Example 50, 3-((4-(5-chloro-2-((6,6-dimethylmorpholin-2-yl)methyl)-3-methylphenyl)pyrrolo[2,1-f][1,2,4]triazin-6-yl)methyl)-6,6-dimethyl-3-azabicyclo[3.1.0]hexane-2,4-dione hydrochloride]
< 500 nM	Cc1cc(Cl)cc(-c2ncnn3cc(CN4C(=O)C5C(C4=O)C5(C)C)cc23)c1CN1[C@@H](C)CNC[C@@H]1C (stereo partly drawn) [Example 11, 3-((4-(5-chloro-2-(((2S,6S)-2,6-dimethylpiperazin-1-yl)methyl)-3-methylphenyl)pyrrolo[2,1-f][1,2,4]triazin-6-yl)methyl)-6,6-dimethyl-3-azabicyclo[3.1.0]hexane-2,4-dione dihydrochloride]
< 500 nM	CC1(C)C2C(=O)N(Cc3cc4c(-c5cc(Cl)cc6ccn(CC7(F)CCNCC7)c56)ncnn4c3)C(=O)C21 (stereo not drawn) [Example 10, 3-((4-(5-chloro-1-((4-fluoropiperidin-4-yl)methyl)-1H-indol-7-yl)pyrrolo[2,1-f][1,2,4]triazin-6-yl)methyl)-6,6-dimethyl-3-azabicyclo[3.1.0]hexane-2,4-dione hydrochloride]
< 500 nM	Cc1cc(Cl)cc(-c2ncnn3cc(CN4C(=O)C5C(C4=O)C5(C)C)cc23)c1NCC1(F)CCNCC1 (stereo not drawn) [Example 80, 3-((4-(5-chloro-2-(((4-fluoropiperidin-4-yl)methyl)amino)-3-methylphenyl)pyrrolo[2,1-f][1,2,4]triazin-6-yl)methyl)-6,6-dimethyl-3-azabicyclo[3.1.0]hexane-2,4-dione dihydrochloride]
500 to 1000 nM	Cc1cc(Cl)cc(-c2ncnn3cc(CN4C(=O)C5C(C4=O)C5(C)C)c(C)c23)c1C[C@@H]1CNCCO1 (stereo partly drawn) [Example 13, 3-((4-(5-chloro-3-methyl-2-(((R)-morpholin-2-yl)methyl)phenyl)-5-methylpyrrolo[2,1-f][1,2,4]triazin-6-yl)methyl)-6,6-dimethyl-3-azabicyclo[3.1.0]hexane-2,4-dione hydrochloride]
< 500 nM	O=c1ccn(CC(F)(F)F)c(=O)n1Cc1cc2c(-c3cc(Cl)cc4ccn(CC5(F)CCNCC5)c34)ncnn2c1 [Example 70, 3-((4-(5-chloro-1-((4-fluoropiperidin-4-yl)methyl)-1H-indol-7-yl)pyrrolo[2,1-f][1,2,4]triazin-6-yl)methyl)-1-(2,2,2-trifluoroethyl)pyrimidine-2,4(1H,3H)-dione dihydrochloride]

target: T1, full-length USP7; assay: Enzymatic assay to determine % inhibition of USP7 activity at 1 μM test compound (Ubiquitin-Rhodamine 110 cleavage); assay type: biochemical; conditions: 1 μM of the test compound; given where IC50 has not been determined yet; mean of two repetitions
Outline: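 Full-length USP7 (0.5-1.0 nM) was preincubated 15 min with DTT in HEPES pH 7.5 buffer, and compound was added at a final 1 μM. Ubiquitin-Rhodamine 110 (0.5 μM final) was then cleaved for 30-60 min at 25° C., read at 485/535 nm. % inhibition is the mean of two repetitions.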

Compound	inhibition at 1 µM
Cc1cc(Cl)cc(-c2ncnn3cc(CN4C(=O)C5C(C4=O)C5(C)C)cc23)c1C1=CCNCC1 (stereo not drawn) [Example 84, 3-((4-(5-chloro-3-methyl-2-(1,2,3,6-tetrahydropyridin-4-yl)phenyl)pyrrolo[2,1-f][1,2,4]triazin-6-yl)methyl)-6,6-dimethyl-3-azabicyclo[3.1.0]hexane-2,4-dione hydrochloride]	< 20%
CN1CCOC(Cc2c(F)cc(Cl)cc2-c2ncnn3cc(Cn4c(=O)ccn(C)c4=O)cc23)C1 (racemic) [Example 103, 3-((4-(5-chloro-3-fluoro-2-((4-methylmorpholin-2-yl)methyl)phenyl)pyrrolo[2,1-f][1,2,4]triazin-6-yl)methyl)-1-methylpyrimidine-2,4(1H,3H)-dione hydrochloride]	20 to 49%
Cn1ccc(=O)n(Cc2cc3c(-c4cc(Cl)cc(F)c4CC4CNCCO4)ncnn3c2)c1=O (stereo not drawn) [Example 116, 3-((4-(5-chloro-3-fluoro-2-(morpholin-2-ylmethyl)phenyl)pyrrolo[2,1-f][1,2,4]triazin-6-yl)methyl)-1-methylpyrimidine-2,4(1H,3H)-dione hydrochloride]	50 to 70%

More lines, now with the values ahead:

inhibition at 1 µM	Compound
20 to 49%	CC1(C)C2C(=O)N(Cc3cc4c(-c5cc(Cl)ccc5N5CC[C@H](N)C5)ncnn4c3)C(=O)C21 (stereo partly drawn) [Example 86, 3-((4-(2-((S)-3-aminopyrrolidin-1-yl)-5-chlorophenyl)pyrrolo[2,1-f][1,2,4]triazin-6-yl)methyl)-6,6-dimethyl-3-azabicyclo[3.1.0]hexane-2,4-dione hydrochloride]
50 to 70%	Cc1cc(Cl)cc(-c2ncnn3cc(CN4C(=O)C5C(C4=O)C5(C)C)cc23)c1OCC1(C)CCCNC1 (single isomer, unassigned) [Example 74, 3-((4-(5-chloro-3-methyl-2-((3-methylpiperidin-3-yl)methoxy)phenyl)pyrrolo[2,1-f][1,2,4]triazin-6-yl)methyl)-6,6-dimethyl-3-azabicyclo[3.1.0]hexane-2,4-dione hydrochloride]
> 70%	CC1(C)C2C(=O)N(Cc3cc4c(-c5cc(Cl)cc6c5N(C5CNC5)CCC6)ncnn4c3)C(=O)C21 (stereo not drawn) [Example 69, 3-((4-(1-(azetidin-3-yl)-6-chloro-1,2,3,4-tetrahydroquinolin-8-yl)pyrrolo[2,1-f][1,2,4]triazin-6-yl)methyl)-6,6-dimethyl-3-azabicyclo[3.1.0]hexane-2,4-dione hydrochloride]
20 to 49%	CC1(C)C2C(=O)N(Cc3cc4c(-c5cc(Cl)ccc5N5CC[C@@H](N)C5)ncnn4c3)C(=O)C21 (stereo partly drawn) [Example 87, 3-((4-(2-((R)-3-aminopyrrolidin-1-yl)-5-chlorophenyl)pyrrolo[2,1-f][1,2,4]triazin-6-yl)methyl)-6,6-dimethyl-3-azabicyclo[3.1.0]hexane-2,4-dione hydrochloride]

same assay, conditions: 1 μM of the test compound; given where IC50 has not been determined yet; mean of two repetitions; hydrochloride, 1 µM

USP7 % inhibition	Compound
B* (B*: 50-70% inhibition)	Cc1cc(Cl)cc(-c2ncnn3cc(CN4C(=O)C5C(C4=O)C5(C)C)cc23)c1OC(C)C1CCNCC1.Cl (single isomer, unassigned) [Example 56, 3-((4-(5-chloro-3-methyl-2-(1-(piperidin-4-yl)ethoxy)phenyl)pyrrolo[2,1-f][1,2,4]triazin-6-yl)methyl)-6,6-dimethyl-3-azabicyclo[3.1.0]hexane-2,4-dione hydrochloride]
